In patent EP3603649A1 (priority 2018, dated 2020):

What was measured:
in vitro = settings: mouse, cerebellar granule neurons
[1] = molecular target: Hamster recombinant full length PrP (Mesocricetus auratus, UniProt P04273); format: biochemical
PrP^res = test system: PrP^res; design: species or system C57BL/6 mice; settings: mouse, in vivo
[2] = test system: endothelial cells of the BBB; settings: cited from earlier work

Chain of Hamster recombinant full length PrP (P04273 23-254 limits assumed): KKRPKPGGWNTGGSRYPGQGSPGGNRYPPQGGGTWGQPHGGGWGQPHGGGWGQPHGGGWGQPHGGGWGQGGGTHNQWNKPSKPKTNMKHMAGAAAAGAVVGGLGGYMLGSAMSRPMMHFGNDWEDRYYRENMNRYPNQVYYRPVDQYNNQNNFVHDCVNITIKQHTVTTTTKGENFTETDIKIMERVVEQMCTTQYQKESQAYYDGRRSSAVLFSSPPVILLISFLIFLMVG

Compound | MCC at 72 h (in vitro) [µM] | concentration of maximum effect on lag phase [1] [µM] | lag phase (time for the reaction to start) [1] | PrP^res accumulation in brain (difference between the groups) (PrP^res) | toxicity on endothelial cells of the BBB [2]
COC[C@H]1O[C@@H]2O[C@H]3[C@H](O)[C@@H](OC)[C@@H](O[C@H]4[C@H](O)[C@@H](OC)[C@@H](O[C@H]5[C@H](O)[C@@H](OC)[C@@H](O[C@H]6[C@H](O)[C@@H](OC)[C@@H](O[C@H]7[C@H](O)[C@@H](OC)[C@@H](O[C@H]8[C@H](O)[C@@H](OC)[C@@H](O[C@H]1[C@H](O)[C@H]2OC)O[C@@H]8COC)O[C@@H]7COC)O[C@@H]6COC)O[C@@H]5COC)O[C@@H]4COC)O[C@@H]3COC [DIMEB, heptakis(2,6-O-dimethyl)beta-cyclodextrin] | > 500 | 100 | significantly increased | did not show any difference | 
trimethyl-β-cyclodextrin [TRIMEB] |  |  |  |  | more toxic than α-cyclodextrin
